Patent publication US6689764B1, “Treatment of angiogenesis dependent conditions with dextrin sulphate” (priority 1999, dated 2004)

Assays:
[1] = system: human placental blood vessels; experiment: Placental blood vessel in fibrin clot in vitro angiogenesis assay; format: cell-based; details: 100 μg/ml, up to day 22
Description: Compounds were tested at a final concentration of 100 μg/ml. The degree of new vessel formation was quantified blind twice a week using a visual analog scale in which 0=no growth, 1=minimal new vessel formation, 2=significant new vessel formation, and 3=dense new vessel formation. An angiogenesis score was derived from each count by dividing the total score (i.e. the sum of all the wells) by the maximum possible score and then expressing the result as a percentage. This graph is representative of 3 experiments with a total of 20 wells/plate/experiment for each compound tested.
Blood vessels (approximately 1-2 mm diameter) were excised from the apical surface of human placentas within 6 h of an elective Caesarean birth. Use of the placentas for these studies were approved by the Ethics Committee of Hammersmith Hospitals Trust, London. The blood vessels were placed in Hank's balanced salt solution and cut into 1-2 mm fragments using fine dissecting forceps and iridectomy scissors. Residual clots were removed and the blood vessels then soaked in Hank's balanced salt solution.
The effect of each compound on new blood vessel formulation was determined by culturing the blood vessels within a fibrin clot in 24-well tissue culture plates. Thirty μl of bovine thrombin (50 NIH U/ml in 0.15 M sodium chloride) was added to each well followed by 1 ml/well of 3 mg/ml bovine fibrinogen in Medium 199. The thrombin and fibrinogen were rapidly mixed and a blood vessel fragment placed in the centre of the well. Fibrin gel formation occurred rapidly and left the vessel suspended within the gel. One ml/well of Medium 199 supplemented with 20% foetal calf serum, 250 IU/ml penicillin and 250 U/ml streptomycin was then added to each well. ε-arnino-n-caproic acid was also added (300 μg/ml) for the first 4 days and twice weekly thereafter (50 μg/ml) in order to prevent dissolution of the fibrin clot. The vessels were cultured at 37° C. in a humidified incubator for 25 days with the media being changed twice weekly.
The degree of new vessel formation was quantified blind twice a week by three different observers using a visual analogue scale in which 0=no growth, 1=very little new vessel formation, 2=significant new vessel formation and 3=dense new vessel formation. An angiogenesis score was derived from the counts undertaken for each well by dividing the total score by the maximum score possible and then expressing the result as a percentage. On each of 3 separate occasions, each compound was tested in 20 replicate wells. […] Some of the fibrin clots were fixed overnight in 10% formalin, paraffin embedded, sectioned for histology and then stained for the endothelial cell markers Factor VIII and CD31. Results are expressed as the mean±sem. A students t-test was used to determine the level of significance.

[2] = system: ECV304 cells; experiment: In vitro proliferation, MTT uptake; format: cell-based, human
Description: (§1) SK-HEP-1 is a human liver adenocarcinoma with endothelial morphology and ECV304 is a human urinary bladder carcinoma with endothelial-like characteristics. Both cell lines were obtained from the ECACC. HUVEC was provided as a growing culture by TCS Biologicals.
(§2) Cells were grown and prepared in RPMI medium containing 10% FCS and 2mM glutamine. For the in vitro assays, cells were harvested with 0.025% EDTA, washed in the culture medium and plated into 96-well plates at 5×10^3 and 1×10^4 cells/well in a volume of 100 μl. After 24 hours, to allow for cell adherence, the medium was replaced with fresh medium containing dextrin sulphate at concentrations of 0, 1, 5, 10, 50, 100, 500, 1000 μg/ml. After 48 hours, proliferation was assessed by methyl thiazol tetrazolium (MTT) uptake as follows:
(§3) MTT (Sigma) was added to the wells in a 50 μl volume at a concentration of 1mg/ml. After 4 hours incubation the insoluble formazan crystals were solubilised by the addition of 75 μl DMSO/well and the absorbance measured at 550 nm.
(§4) Dextrin sulphate was assessed in two separate experiments. All experiments were performed with two different cell-seeding concentrations. […] To compare between cell lines and experiments, the level of inhibition achieved at the highest concentration evaluated (1000 μg/ml) was calculated as was the significance from the untreated control. (See FIG. 11).

[3] = system: SK-HEP-1 cells; experiment: In vitro proliferation, MTT uptake; format: cell-based, human
Description: as §1, §2, §3, §4

[4] = system: HUVEC cell line; experiment: TCS Biologicals Human Angiogenesis Model (tubule formation); format: cell-based
Description: The effect of sulphated dextrin on vessel formation of the HUVEC cell line was performed by the use of the TCS Biologicals Human Angiogenesis Model. The assay is supplied as a growing culture of the HUVEC cell line together with culture matrix and additional human cells present (the exact nature of the cells is not known) at the earliest stages of tubule formation in a 24-well format. The positive control reagent was a standard stock solution of VEGF and the negative control was Suramin. After removing the well seals, the cultures were examined for cell morphology to confirm their viability.
Growth medium was provided with the kit and was used to make up the sulphated dextrin at concentrations ranging from 0-1000 μg/ml. The existing medium was aspirated from the wells and replaced with medium containing the dextrin sulphate concentrations in a 0.5ml volume. This was placed at 37° C., in a 5% CO2 containing atmosphere. This was repeated on days 4, 7 and 9.
Between days 7-11 cultures were fixed by the enclosed fixative and stained with the mouse monoclonal anti-PECAM-1 antibody at a 1:4000 dilution (present in blocking buffer). 0.5ml of diluted antibody was added per well and incubated for 60 minutes at 37° C. The secondary antibody (goat anti-mouse lgG alkaline phosphatase conjugate) was diluted 1:500 in blocking buffer and added to the wells after washing for 60 minutes at 37° C. After washing the plate the substrate was prepared; BCIP/NBT tablets were dissolved in distilled water and added to the wells. Following incubation for 5-10 minutes the wells were washed and were imaged using the Leica Qwin image analysis software package.

[5] = system: AP5LV human colorectal xenograft; experiment: AP5LV human colorectal xenograft in SCID mice; format: in vivo
Description: Dextrin sulphate, 10 mg/kg in 1ml icodextrin was administered every second day to two male SCID micc. Dosing continued for 14 days.
The cell line evaluated, AP5LV, is a variant of an established human colorectal cell line, derived originally from a patient's primary tumour. AP5LV cells have been selected for their ability to both colonise the lungs following intravenous injection and to spontaneously metastasise to the lungs following injection of the cells into the peritoneal muscle wall. AP5LV cells were maintained in vitro in RPMI 1640 culture medium (Gibco, Paisley, UK) containing 10% (v/v) heat inactivated foetal bovine serum (Sigma, Poole, UK) at 37° C. in 5% CO2 and humidified conditions. Cells from semi-confluent monolayers were harvested with 0.025% EDTA, washed twice in the culture medium described above, and re-suspended at 5×10^6/50 μl in sterile phosphate buffered saline, pH 7.4(PBS).
The mice were anaesthetised using Hypnorm(Roche)/Hyponovel(Janssen) and the cell suspension injected into the peritoneal muscle wall of 20 male SCD mice. Mice were electronically tagged for identification purposes (RS Biotech, Tracker), and randomly allocated to two experimental groups (see below). The treatment regime was initiated on day 1 and continued every other day until termination on day 38. […]

[6] = system: HUVEC cells; details: in vitro, Thornton et al 1999; cited from earlier work

dextrin sulphate
new vessel formation compared to media alone [1]: inhibits new vessel formation
inhibition of in vitro growth ([2]; ECV304, 0-1000 μg/ml, 48 hours): moderate levels of inhibition
level of inhibition of growth ([2]; ECV304, 1000 μg/ml, both cell concentrations, two experiments): 11-33%
concentrations at which inhibitory effects were seen ([2]; ECV304, MTT assay): > 100 µg/mL
inhibition of in vitro growth ([3]; SK-HEP-1, 0-1000 μg/ml, 48 hours): moderate levels of inhibition
level of inhibition of growth ([3]; SK-HEP-1, 1000 μg/ml, lower cell concentration): ~65%
concentrations at which inhibitory effects were seen ([3]; SK-HEP-1, MTT assay): > 100 µg/mL
level of inhibition of growth ([3]; SK-HEP-1, higher cell concentration): not as great
branch point number, % of control ([4]; 1 μg/ml): 120%
tubule branch points, reduction ([4]; 1 μg/ml): 31%
branch point number, % of control ([4]; 5 μg/ml): 115%
branch point number, inhibition ([4]; 50 μg/ml): 26%
branch point number, inhibition ([4]; 100 μg/ml): 48%
tubule number, inhibition ([4]; 100 μg/ml): 48%
branch point number, inhibition ([4]; 500 μg/ml): 53%
branch point number, inhibition ([4]; 1000 μg/ml): 68%
tubule branch points, reduction ([4]; 1000 μg/ml): 93%
tubule number, inhibition ([4]; 1000 μg/ml): 68%
branch point number ([4]; all concentrations evaluated (1-1000 μg/ml)): inhibitory effect
tubule number ([4]; lower concentrations): low but significant stimulation
toxicity ([5]; 10 mg/kg i.p. every second day, SCID mice): no toxicity
reduction in final tumour weight ([5]; 10 mg/kg in 4% Icodextrin i.p. every second day, termination day 38, SCID mice): 28%
proliferation of HUVEC cells [6]: not to be directly inhibited
